The values that follow come from patent publication US20240287025A1, “TETRAHYDROQUINOLINE (THQ) COUMPOUNDS” (Centre National de la Recherche Scientifique, priority 2021, published 2024).

The target in one experiment is Brd4 BD1 (Homo sapiens (Human), UniProt O60885). As to the kind of experiment: HTRF evaluation of bromodomain inhibitors, Brd4 BD1. It counts as binding. The settings on record: H4ac4 peptide 50 nM, 4 h at 4° C. As to the method: (§1) HTRF reagents and buffers were purchased from Cisbio Bioassays. The assay used a terbium (Ill) cryptate donor reagent conjugated to an anti-GST antibody (MAb anti-GST-Tb; GSTTLA), a streptavidin-conjugated acceptor reagent (streptavidin-d2) and Cisbio proprietary buffers (EPlgeneous Binding Domain Diluent and Detection buffer, respectively). GST-tagged bromodomains (BDs) were expressed in E. coli and purified using standard procedures. Incubation of GST-tagged BDs with biotinylated acetylated H4 peptide (H4K5acK8acK12acK16ac, here named H4ac4) brings the donor and acceptor into close proximity and allows for a FRET reaction. GST-tagged proteins in 25 mM Hepes pH 7.5, 150 mM NaCl, 0.5 mM DTT were assayed at a final concentration of 5 nM. Biotinylated H4ac4 peptides were used at a final concentration of 50, 600 nM in assays involving Brd4 BD1, Brd4 BD2, respectively. The antibody-conjugated donor was used at 0.5 nM and the streptavidin-conjugated acceptor was used at ⅛ of the H4ac4 peptide concentration. Inhibitors were tested by performing an eleven-point dilution series with a maximal final concentration of […]. These concentrations allowed a fixed DMSO concentration at 0.2%, critical for a Z′ factor ≥0.8. Components were incubated at 4° C. for 4 h (BD1) or for 24 h (BD2). Experiments were performed in 384-well white plates (Greiner ref. 781080) and analyzed in a ClarioStar plate reader (BMG LABTECH, excitation at 330 nm and emission at 620 and 665 nm, corresponding to the donor and acceptor emission peaks, respectively; the 665/620 ratio is used to calculate the specific HTRF signal) with an integration delay of 60 μs and an integration time of 400 μs.

A further experiment concerns the target Brd4 BD2 (Homo sapiens (Human), UniProt O60885). As to the kind of experiment: HTRF evaluation of bromodomain inhibitors, Brd4 BD2. The settings on record: for IC50: HTRF, H4ac4 peptide 600 nM, 24 h at 4° C.; for Selectivity BD2/BD1: ratio of the BD1 and BD2 IC50. It is filed as binding. The protocol:
as §1

Usually IC50 stands for the concentration that inhibits the measured activity by half. A lower IC50 goes with higher potency. Regarding `CC[C@@H]1[C@H](C)[C@@H](N=[N+]=[N-])c2cc(C(=O)OC)ccc2N1C(C)=O` (single isomer, unassigned) [ent-27], the IC50 at Brd4 BD1 and on Brd4 BD2 was over 100000 nM each time.

`CC[C@@H]1[C@H](C)[C@@H](n2cc(-c3ccccc3)nn2)c2cc(C(=O)OC)ccc2N1C(C)=O` (single isomer, unassigned) [ent-28]: the figures for the IC50 at Brd4 BD1 and against Brd4 BD2 were over 100000 nM and 51400 nM, respectively.

`CC[C@H]1[C@@H](C)[C@H](N=[N+]=[N-])c2cc(C(=O)OC)ccc2N1C(C)=O` [Compound 27, Methyl-(2S,3R,4S)-1-acetyl-4-azido-2-ethyl-3-methyl-1,2,3,4-tetrahydroquinoline-6-carboxylate]: half-maximal inhibition on Brd4 BD1 (IC50) was put at 17700 nM. On Brd4 BD2, half-maximal inhibition (IC50) was put at 1880 nM and the “Selectivity BD2/BD1” value was determined as 9.4.

In turn, `CC[C@H]1[C@@H](C)[C@H](n2cc(-c3ccccc3)nn2)c2cc(C(=O)OC)ccc2N1C(C)=O` [Compound 28, Methyl-(2S,3R,4S)-1-acetyl-2-ethyl-3-methyl-4-(4-phenyl-1H-1,2,3-triazol-1-yl)-1,2,3,4-tetrahydroquinoline-6-carboxylate] had an IC50 against Brd4 BD1 of 8310 nM. Besides, on Brd4 BD2, the IC50 is 567 nM and the “Selectivity BD2/BD1” value amounted to 14.7.

`CC[C@H]1[C@H](C)[C@@H](N=[N+]=[N-])c2cc(C(=O)OC)ccc2N1C(C)=O` [Compound 30, Methyl-(2S,3S,4R)-1-acetyl-4-azido-2-ethyl-3-methyl-1,2,3,4-tetrahydroquinoline-6-carboxylate]: the IC50 against Brd4 BD1 and at Brd4 BD2 was over 20000 nM each time.

For `CC[C@H]1[C@H](C)[C@@H](n2cc(-c3ccccc3)nn2)c2cc(C(=O)OC)ccc2N1C(C)=O` [Compound 31, Methyl-(2S,3S,4R)-1-acetyl-2-ethyl-3-methyl-4-(4-phenyl-1H-1,2,3-triazol-1-yl)-1,2,3,4-tetrahydroquinoline-6-carboxylate], the values for the IC50 at Brd4 BD1 and on Brd4 BD2 were over 200000 nM and 14900 nM, respectively.

In the case of `C#CCOCCOCCOCCOCc1cn([C@H]2c3cc(C(=O)OC)ccc3N(C(C)=O)[C@@H](CC)[C@@H]2C)nn1` [Compound 32, Methyl-(2S,3S,4R)-4-(4-(2,5,8,11-tetraoxatetradec-13-yn-1-yl)-1H-1,2,3-triazol-1-yl)-1-acetyl-2-ethyl-3-methyl-1,2,3,4-tetrahydroquinoline-6-carboxylate], the half-inhibitory concentration (IC50) at Brd4 BD1 and on Brd4 BD2 was over 20000 nM throughout.

In the case of `C=CCCCC(=O)Nc1ccc(-c2ccc3c(c2)[C@@H](N=[N+]=[N-])[C@H](C)[C@H](CC)N3C(C)=O)cc1` [XC, N-(4-((2S,3R,4S)-1-acetyl-4-azido-2-ethyl-3-methyl-1,2,3,4-tetrahydroquinolin-6-yl)phel)hex-5-enamide], half-maximal inhibition at Brd4 BD1 (IC50) required 3100 nM. Moreover, on Brd4 BD2, the IC50 came out at 2230 nM and the “Selectivity BD2/BD1” value is recorded as 1.4.

`C=CCCCC(=O)Nc1ccc(-c2ccc3c(c2)[C@@H](n2cc(CCCCC)nn2)[C@H](C)[C@H](CC)N3C(C)=O)cc1` [XE, N-(4-((2S,3R,4S)-1-acetyl-2-ethyl-3-methyl-4-(4-pentyl-1H-1,2,3-triazol-1-yl)-1,2,3,4-tetrahydroquinolin-6-yl)phenyl)hex-5-enamide] yielded an IC50 at Brd4 BD1 of 4080 nM. On Brd4 BD2, half-maximal inhibition (IC50) was put at 3180 nM and the “Selectivity BD2/BD1” value was 1.3.

Compound `CCCCCc1cn([C@@H]2c3cc(C(=O)OC)ccc3N(C(C)=O)[C@@H](CC)[C@H]2C)nn1` [XF, Methyl (2S,3R,4S)-1-acetyl-2-ethyl-3-methyl-4-(4-pentyl-1H-1,2,3-triazol-1-yl)-1,2,3,4-tetrahydroquinoline-6-carboxylate] gave an IC50 at Brd4 BD1 of 30000 nM. On Brd4 BD2, it took 1930 nM to reach half-maximal inhibition (IC50) and the “Selectivity BD2/BD1” value is listed as 15.6.

On to `C=CCCCC(=O)Nc1ccc(-c2ccc3c(c2)[C@@H](NC(=O)OC(C)C)[C@H](C)[C@H](CC)N3C(C)=O)cc1` [XI, Isopropyl-((2S,3S,4S)-1-acetyl-2-ethyl-6-(4-(hex-5-enamido)phenyl)-3-methyl-1,2,3,4-tetrahydroquinolin-4-yl)carbamate], for which, at Brd4 BD1, the IC50 is 2680 nM. Moreover, on Brd4 BD2, the IC50 is 2170 nM and the “Selectivity BD2/BD1” value stood at 1.2.

As for `CC[C@H]1[C@@H](C)[C@H](NC(=O)OC(C)C)c2cc(C(=O)OC)ccc2N1C(C)=O` [XJ, Methyl-(2S,3S,4S)-1-acetyl-2-ethyl-4-((isopropoxycarbonyl)amino)-3-methyl-1,2,3,4-tetrahydroquinoline-6-carboxylate], the IC50 against Brd4 BD1 stood at 24200 nM. For the same compound, on Brd4 BD2, the IC50 amounted to 1880 nM and the “Selectivity BD2/BD1” value amounted to 12.8.

`C=CCCCC(=O)Nc1ccc(-c2ccc3c(c2)[C@@H](Nc2ncc(Cl)cn2)[C@H](C)[C@H](CC)N3C(C)=O)cc1` [XK, N-(4-((2S,3S,4S)-1-acetyl-4-((5-chloropyrimidin-2-yl)amino)-2-ethyl-3-methyl-1,2,3,4-tetrahydroquinolin-6-yl)phenyl)hex-5-enamide] returned an IC50 on Brd4 BD1 of 3140 nM. For the same compound, at Brd4 BD2, half-maximal inhibition (IC50) required 1330 nM and the “Selectivity BD2/BD1” value came to 2.4.

`CC[C@H]1[C@@H](C)[C@H](Nc2ncc(Cl)cn2)c2cc(C(=O)OC)ccc2N1C(C)=O` [XL, Methyl (2S,3S,4S)-1-acetyl-4-((5-chloropyrimidin-2-yl)amino)-2-ethyl-3-methyl-1,2,3,4-tetrahydroquinoline-6-carboxylate] yielded an IC50 at Brd4 BD1 of 10100 nM. At Brd4 BD2, the IC50 amounted to 1130 nM and the “Selectivity BD2/BD1” value was 9.0.

`CC[C@H]1[C@@H](C)[C@H](n2cc(-c3ccc(OC)cc3)nn2)c2cc(C(=O)OC)ccc2N1C(C)=O` [XM, Methyl (2S,3R,4S)-1-acetyl-2-ethyl-4-(4-(4-methoxyphenyl)-1H-1,2,3-triazol-1-yl)-3-methyl-1,2,3,4-tetrahydroquinoline-6-carboxylate] yielded an IC50 on Brd4 BD1 of 2980 nM. At Brd4 BD2, the IC50 came to 563 nM and the “Selectivity BD2/BD1” value is 5.3.

On to `CC[C@H]1[C@@H](C)[C@H](n2cc(-c3ccc(C(F)(F)F)cc3)nn2)c2cc(C(=O)OC)ccc2N1C(C)=O` [XN, Methyl (2S,3R,4S)-1-acetyl-2-ethyl-3-methyl-4-(4-(4-(trifluoromethyl)phenyl)-1H-1,2,3-triazol-1-yl)-1,2,3,4-tetrahydroquinoline-6-carboxylate], for which the IC50 stood at 14500 nM on Brd4 BD1 and 1910 nM against Brd4 BD2. Besides, the “Selectivity BD2/BD1” value on Brd4 BD2 came to 7.6.

Take `CC[C@H]1[C@@H](C)[C@H](n2cc(C3CCCCC3)nn2)c2cc(C(=O)OC)ccc2N1C(C)=O` [XO, Methyl-(2S,3R,4S)-1-acetyl-4-(4-cyclohexyl-1H-1,2,3-triazol-1-yl)-2-ethyl-3-methyl-1,2,3,4-tetrahydroquinoline-6-carboxylate]: the figures for the IC50 on Brd4 BD1 and against Brd4 BD2 were 5520 nM and 860 nM, respectively. Moreover, the “Selectivity BD2/BD1” value on Brd4 BD2 was 6.4.

Compound `C#CCOCCOCc1cn([C@@H]2c3cc(C(=O)OC)ccc3N(C(C)=O)[C@@H](CC)[C@H]2C)nn1` [XP, Methyl-(2S,3R,4S)-1-acetyl-2-ethyl-3-methyl-4-(4-((2-(prop-2-yn-1-yloxy)ethoxy)methyl)-1H-1,2,3-triazol-1-yl)-1,2,3,4-tetrahydroquinoline-6-carboxylate] yielded an IC50 at Brd4 BD1 of about 30000 nM. Besides, on Brd4 BD2, 2260 nM corresponded to half-maximal inhibition (IC50) and the “Selectivity BD2/BD1” value was 13.2.

As to `C#CCOCCOCCOCCOCc1cn([C@@H]2c3cc(C(=O)OC)ccc3N(C(C)=O)[C@@H](CC)[C@H]2C)nn1` [XR, Methyl-(2S,3R,4S)-4-(4-(2,5,8,11-tetraoxatetradec-13-yn-1-yl)-1H-1,2,3-triazol-1-yl)-1-acetyl-2-ethyl-3-methyl-1,2,3,4-tetrahydroquinoline-6-carboxylate], the IC50 was over 100000 nM at Brd4 BD1 and 2360 nM at Brd4 BD2.

As to `C#CCOCCOCCOCCOCCOCc1cn([C@@H]2c3cc(C(=O)OC)ccc3N(C(C)=O)[C@@H](CC)[C@H]2C)nn1` [XS, Methyl-(2S,3R,4S)-4-(4-(2,5,8,11,14-pentaoxaheptadec-16-yn-1-yl)-1H-1,2,3-triazol-1-yl)-1-acetyl-2-ethyl-3-methyl-1,2,3,4-tetrahydroquinoline-6-carboxylate], at Brd4 BD1, the IC50 was about 30000 nM. Further, at Brd4 BD2, the IC50 stood at 1300 nM and the “Selectivity BD2/BD1” value is given as 23.1.

On Brd4 BD2, `CC[C@H]1[C@@H](C)[C@H](n2cc(-c3ccccc3)nn2)c2cc(C(F)(F)F)ccc2N1C(C)=O` [YC, 1-((2S,3R,4S)-2-Ethyl-3-methyl-4-(4-phenyl-1H-1,2,3-triazol-1-yl)-6-(trifluoromethyl)-3,4-dihydroquinolin-1(2H)-yl)ethan-1-one] returned an IC50 of 22500 nM.

For the compound `CC[C@H]1[C@@H](C)[C@H](N=[N+]=[N-])c2cc(-c3ccc(NC(=O)CCCCCCC(=O)NO)cc3)ccc2N1C(C)=O` [YH, N-(4-((2S,3R,4S)-1-acetyl-4-azido-2-ethyl-3-methyl-1,2,3,4-tetrahydroquinolin-6-yl)phenyl)-N-hydroxyoctanediamide], the “Selectivity BD2/BD1” value on Brd4 BD2 was 1.6.
